According to PubChem BioAssay AID256 (DTP/NCI, 2004):
Values joined by “and” are separate entries in the source; they are usually repeats but may differ in a detail not shown here. Identical values can stand only once. Toxic doses and inconclusive results are not listed. The calls were made as follows: active = survival T/C of 150% or more; inactive = T/C below 125% in these data.

Test system: CD2F1 mice, L1210 leukemia ip, survival T/C
Assay: NCI In Vivo Anticancer Drug Screen. Data for tumor model L1210 Leukemia (intraperitoneal) in CD2F1 (CDF1) mice
Conditions: higher = longer survival
Summary of the method: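 Vehicle-treated tumor-bearing mice served as controls (C) for compound-treated mice (T). Reported figure is T divided by C.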

[1] = endpoint: mean survival time, dose: 25.0 mg/kg/injection, schedule: Q01DX009 (ip), vehicle: saline with Tween-80
[2] = endpoint: mean survival time, dose: 50.0 mg/kg/injection, schedule: Q01DX009 (ip), vehicle: saline with Tween-80
[3] = endpoint: mean survival time, dose: 100.0 mg/kg/injection, schedule: Q04DX003 (ip), vehicle: saline with Tween-80
[4] = endpoint: mean survival time, dose: 100.0 mg/kg/injection, schedule: Q01DX001 (ip), vehicle: saline
[5] = endpoint: mean survival time, dose: 100.0 mg/kg/injection, schedule: Q01DX009 (ip), vehicle: saline with Tween-80
[6] = endpoint: mean survival time, dose: 200.0 mg/kg/injection, schedule: Q01DX009 (ip), vehicle: saline with Tween-80
[7] = endpoint: mean survival time, dose: 400.0 mg/kg/injection, schedule: Q01DX009 (ip), vehicle: saline with Tween-80
[8] = endpoint: mean survival time, dose: 200.0 mg/kg/injection, schedule: Q01DX001 (ip), vehicle: saline
[9] = endpoint: mean survival time, dose: 400.0 mg/kg/injection, schedule: Q01DX001 (ip), vehicle: saline
[10] = endpoint: mean survival time, dose: 100.0 mg/kg/injection, schedule: Q01DX001 (ip), vehicle: saline with Tween-80
[11] = endpoint: mean survival time, dose: 200.0 mg/kg/injection, schedule: Q01DX001 (ip), vehicle: saline with Tween-80
[12] = endpoint: mean survival time, dose: 400.0 mg/kg/injection, schedule: Q01DX001 (ip), vehicle: saline with Tween-80
[13] = endpoint: mean survival time, dose: 100.0 mg/kg/injection, schedule: Q04DX002 (ip), vehicle: saline
[14] = endpoint: mean survival time, dose: 200.0 mg/kg/injection, schedule: Q04DX002 (ip), vehicle: saline

Measured: T/C

C[Si](OCc1ccc(-c2ccccc2)cc1)c1ccccc1
inactive: endpoint: mean survival time, dose: 100.0 mg/kg/injection, schedule: Q01DX009 (ip), vehicle: saline 99 % of control | endpoint: mean survival time, dose: 100.0 mg/kg/injection, schedule: Q04DX003 (ip), vehicle: saline 96 % of control | endpoint: mean survival time, dose: 200.0 mg/kg/injection, schedule: Q01DX009 (ip), vehicle: saline 100 % of control | endpoint: mean survival time, dose: 200.0 mg/kg/injection, schedule: Q04DX003 (ip), vehicle: saline 93 % of control | endpoint: mean survival time, dose: 400.0 mg/kg/injection, schedule: Q01DX009 (ip), vehicle: saline 94 % of control | endpoint: mean survival time, dose: 400.0 mg/kg/injection, schedule: Q04DX003 (ip), vehicle: saline 98 % of control

Cc1c(C)c(NC(=O)/C=C/C(=O)O)c(C)c(C)c1NC(=O)/C=C\C(=O)O
inactive: endpoint: mean survival time, dose: 100.0 mg/kg/injection, schedule: Q01DX001 (ip), vehicle: Klucel (hydroxypropylcellulose) (HPC) 101 % of control | endpoint: mean survival time, dose: 200.0 mg/kg/injection, schedule: Q01DX001 (ip), vehicle: Klucel (hydroxypropylcellulose) (HPC) 96 % of control | endpoint: mean survival time, dose: 400.0 mg/kg/injection, schedule: Q01DX001 (ip), vehicle: Klucel (hydroxypropylcellulose) (HPC) 98 % of control

CC1(C)C(O)C(C)(C)C1O (configuration not stated)
inactive: [1] 93 % of control | [2] 98 % of control | [3] 97 % of control

COc1cc2c(C(=O)O)cc(-c3ccc(Cl)cc3)nc2cc1Cl
inactive: [4] 98 % of control

Nc1nc(N)c2ncn(C3CC(CO)C(O)C3O)c2n1 (configuration not stated)
inactive: [2] 89 % of control

CCOC(=O)c1ccc(OC(=O)Nc2cc(OC)ccc2OC)cc1
inactive: [5] 93 % of control | [6] 92 % of control

CN(C)CCCN=c1c2ccccc2n(C)c2[nH]c(=O)n(C)c(=O)c12
inactive: endpoint: median survival time, dose: 3.75 mg/kg/injection, schedule: Q01DX005 (ip), vehicle: saline 105 % of control | endpoint: median survival time, dose: 7.5 mg/kg/injection, schedule: Q01DX005 (ip), vehicle: saline 109 % of control | endpoint: median survival time, dose: 10.8 mg/kg/injection, schedule: Q01DX005 (ip), vehicle: saline 107 % of control | endpoint: median survival time, dose: 15.0 mg/kg/injection, schedule: Q01DX005 (ip), vehicle: saline 111 % of control and 112 % of control | endpoint: median survival time, dose: 18.0 mg/kg/injection, schedule: Q01DX005 (ip), vehicle: saline 123 % of control | endpoint: median survival time, dose: 30.0 mg/kg/injection, schedule: Q01DX005 (ip), vehicle: saline 116 % of control and 124 % of control | endpoint: median survival time, dose: 50.0 mg/kg/injection, schedule: Q01DX005 (ip), vehicle: saline 119 % of control | endpoint: median survival time, dose: 60.0 mg/kg/injection, schedule: Q01DX005 (ip), vehicle: saline 120 % of control and 101 % of control | endpoint: median survival time, dose: 120.0 mg/kg/injection, schedule: Q01DX005 (ip), vehicle: saline 119 % of control

c1ccc2cc(-c3cc4ccccc4s3)ccc2c1
inactive: endpoint: mean survival time, dose: 264.0 mg/kg/injection, schedule: Q01DX009 (ip), vehicle: saline with Tween-80 104 % of control | [7] 98 % of control

N#CC1(OC2OC(CO)C(O)C(O)C2O)C=CC(O)C1O (configuration not stated)
inactive: [4] 101 % of control | [8] 101 % of control | [9] 98 % of control

CCN1CCS(=O)(=O)C1=O
inactive: endpoint: mean survival time, dose: 75.0 mg/kg/injection, schedule: Q01DX001 (ip), vehicle: other 108 % of control | endpoint: mean survival time, dose: 150.0 mg/kg/injection, schedule: Q01DX001 (ip), vehicle: other 115 % of control

C1N2CN3CN1CN(C2)C3.[Cl][Pt][Cl]
inactive: endpoint: mean survival time, dose: 25.0 mg/kg/injection, schedule: Q04DX003 (ip), vehicle: saline with Tween-80 123 % of control | endpoint: mean survival time, dose: 50.0 mg/kg/injection, schedule: Q04DX003 (ip), vehicle: saline with Tween-80 101 % of control | [3] 98 % of control

c1ccc(C[n+]2ccccc2)cc1
inactive: endpoint: mean survival time, dose: 12.5 mg/kg/injection, schedule: Q01DX009 (ip), vehicle: saline 100 % of control | endpoint: mean survival time, dose: 25.0 mg/kg/injection, schedule: Q01DX009 (ip), vehicle: saline 100 % of control | [2] 100 % of control | endpoint: mean survival time, dose: 50.0 mg/kg/injection, schedule: Q01DX009 (ip), vehicle: saline 106 % of control

Cc1nc(N)[nH]c(=O)c1CCCN(c1ccccc1)S(=O)(=O)c1ccc(N)cc1
inactive: [10] 101 % of control | [11] 89 % of control | [12] 89 % of control

CC12CCC3C(CC=C4CC([Se]C(=N)N)CCC43C)C1CCC2=O (configuration not stated)
inactive: endpoint: mean survival time, dose: 75.0 mg/kg/injection, schedule: Q01DX001 (ip), vehicle: steriod suspending solution 95 % of control | endpoint: mean survival time, dose: 150.0 mg/kg/injection, schedule: Q01DX001 (ip), vehicle: steriod suspending solution 95 % of control | endpoint: mean survival time, dose: 300.0 mg/kg/injection, schedule: Q01DX001 (ip), vehicle: steriod suspending solution 95 % of control

CN(C)Cc1[c-]c(CN(C)C)ccc1.[Cl][Pt]
inactive: endpoint: median survival time, dose: 1.56 mg/kg/injection, schedule: Q04DX003 (ip), vehicle: saline 101 % of control | endpoint: median survival time, dose: 3.12 mg/kg/injection, schedule: Q04DX003 (ip), vehicle: saline 91 % of control and 107 % of control | endpoint: median survival time, dose: 6.25 mg/kg/injection, schedule: Q04DX003 (ip), vehicle: saline 111 % of control | endpoint: median survival time, dose: 12.5 mg/kg/injection, schedule: Q04DX003 (ip), vehicle: saline 96 % of control and 107 % of control | endpoint: median survival time, dose: 25.0 mg/kg/injection, schedule: Q04DX003 (ip), vehicle: saline 100 % of control and 107 % of control | endpoint: median survival time, dose: 50.0 mg/kg/injection, schedule: Q04DX003 (ip), vehicle: saline 100 % of control and 101 % of control | endpoint: median survival time, dose: 100.0 mg/kg/injection, schedule: Q04DX003 (ip), vehicle: saline 98 % of control

CC1OC(C)(C)OC1C(=O)O (configuration not stated)
inactive: endpoint: mean survival time, dose: 25.0 mg/kg/injection, schedule: Q01DX009 (ip), vehicle: Klucel (hydroxypropylcellulose) (HPC) 92 % of control | endpoint: mean survival time, dose: 50.0 mg/kg/injection, schedule: Q01DX009 (ip), vehicle: Klucel (hydroxypropylcellulose) (HPC) 86 % of control

CC(Cc1ccccc1)NC(C#N)c1ccccc1 (configuration not stated)
inactive: endpoint: mean survival time, dose: 12.5 mg/kg/injection, schedule: Q01DX009 (ip), vehicle: saline with Tween-80 102 % of control | [1] 98 % of control | [2] 101 % of control

CCOC(=O)C(CC)(OC(C)=O)C(=O)C=O (configuration not stated)
inactive: [4] 108 % of control | [8] 112 % of control | [9] 116 % of control

O=S(=O)(O)c1cccnc1
inactive: [13] 94 % of control | [14] 94 % of control | endpoint: mean survival time, dose: 400.0 mg/kg/injection, schedule: Q04DX002 (ip), vehicle: saline 97 % of control

CCC1(c2cccc([N+](=O)[O-])c2)OCCO1
inactive: [10] 94 % of control | [5] 102 % of control | [3] 102 % of control | [11] 94 % of control | [6] 110 % of control | endpoint: mean survival time, dose: 200.0 mg/kg/injection, schedule: Q04DX003 (ip), vehicle: saline with Tween-80 107 % of control | [12] 94 % of control | [7] 103 % of control | endpoint: mean survival time, dose: 400.0 mg/kg/injection, schedule: Q04DX003 (ip), vehicle: saline with Tween-80 102 % of control

OC(CC1CCCC(CC(O)c2ccccc2)N1CCc1ccccc1)c1ccccc1 (configuration not stated)
inactive: endpoint: mean survival time, dose: 75.0 mg/kg/injection, schedule: Q01DX001 (ip), vehicle: saline 97 % of control | endpoint: mean survival time, dose: 150.0 mg/kg/injection, schedule: Q01DX001 (ip), vehicle: saline 91 % of control

O=C1C=Cc2ccccc2/C1=C/c1nc(/C=C/c2ccccc2)oc1O
inactive: endpoint: mean survival time, dose: 100.0 mg/kg/injection, schedule: Q04DX002 (ip), vehicle: saline with Tween-80 117 % of control | endpoint: mean survival time, dose: 200.0 mg/kg/injection, schedule: Q04DX002 (ip), vehicle: saline with Tween-80 113 % of control | endpoint: mean survival time, dose: 400.0 mg/kg/injection, schedule: Q04DX002 (ip), vehicle: saline with Tween-80 105 % of control

Oc1ccc(/C=N/N=C/c2ccc(O)c(O)c2)cc1O
inactive: endpoint: median survival time, dose: 25.0 mg/kg/injection, schedule: Q01DX009 (ip), vehicle: saline with Tween-80 108 % of control | endpoint: median survival time, dose: 50.0 mg/kg/injection, schedule: Q01DX009 (ip), vehicle: saline with Tween-80 110 % of control | endpoint: median survival time, dose: 100.0 mg/kg/injection, schedule: Q01DX009 (ip), vehicle: saline with Tween-80 112 % of control

BrC1CCCC1
inactive: [4] 100 % of control | [8] 102 % of control | [9] 102 % of control

CN(C)c1nc(N)cc(-c2ccncc2)n1
inactive: [13] 96 % of control | [14] 88 % of control

C1=C[S+](c2ccccc2)C(c2ccccc2)c2ccccc21 (configuration not stated)
inactive: endpoint: mean survival time, dose: 12.5 mg/kg/injection, schedule: Q04DX002 (ip), vehicle: Klucel (hydroxypropylcellulose) (HPC) 106 % of control | endpoint: mean survival time, dose: 25.0 mg/kg/injection, schedule: Q04DX002 (ip), vehicle: Klucel (hydroxypropylcellulose) (HPC) 115 % of control
